Laboratory results: EP0055716B1, “AMPLIFIED ANTIBIOTIC AND ANTITUMOR AGENTS” (priority 1980, dated 1982)

How the values were obtained:
[1] = test system: Walker 256 carcinoma Sarcoma; assay: Survival of rats with Walker 256 ascites tumour, amide with or without amplifier; format: in vivo, Sprague Dawley rats; details: for T/C (1): control saline vehicle only
Procedure: This was given two 2-minute treatments with Boyle's fluid (9 vols. 0.83% NH4CI, 1 vol. Tris buffer, pH7.2). The cell suspension was counted on a haemocytometer using Turk's fluid and then diluted with Eagle's medium to 10^7 live cells per ml, and then 0.1 ml was injected intraperitoneally. Bacto-fluid Thiolglycollate Medium was used to test for contamination. Solutions of the phleomycins, bleomycins or tallysomycins were made up in phosphate-buffered saline at pH7.2 in daily doses at the commencement of each 5 day injection period and were kept frozen until the commencement of each day's injections. The injections were given at 9 a.m. and 4 p.m. […] Test groups usually comprised 7 or 8 animals.

Ehrlich's Ascites Tumor = assay: Survival of mice with Ehrlich's ascites tumor, amide with or without amplifier; format: in vivo; details: for T/C (1): control saline vehicle only
Mouse Sarcoma 180 = assay: Survival of mice with Sarcoma 180, amide with or without amplifier; format: in vivo; details: i.p.; for T/C (1): control saline vehicle only
[2] = Exp 1C, amplifier alone 675 uKD
[3] = Exp 1E, amplifier alone 675 uKD
[4] = Exp 2C, i.p., amplifier alone 675 uKD
[5] = Exp 2C, i.p., amplifier alone 2025 uKD
[6] = Exp 3B, amplifier alone 675 uKD
[7] = Exp 3C, amplifier alone 675 uKD
[8] = Exp 1A, amplifier alone 10.61 uKD
[9] = Exp 1A, amplifier alone 106.1 uKD
[10] = Exp 1B, amplifier alone 10.61 uKD
[11] = Exp 1B, amplifier alone 1061 uKD
[12] = Exp 1D, amplifier alone 10.61 uKD in minipumps
[13] = Exp 1D, amplifier alone 106.1 uKD in minipumps
[14] = Exp 2A, i.p., amplifier alone 10.61 uKD
[15] = Exp 2A, i.p., amplifier alone 106.1 uKD
[16] = Exp 2B, amplifier alone 10.61 uKD in drinking water
[17] = Exp 2B, amplifier alone 106.1 uKD in drinking water
[18] = Exp 2B, amplifier alone 1061 uKD in drinking water
[19] = Exp 3A, amplifier alone 1942 uKD

## Dimethylthiocyanine
[1]; [2]
  M.S.T.: 9.0 days
  T/C (1): 112
[1]; [3]
  M.S.T.: 6.0 days
  T/C (1): 100
Ehrlich's Ascites Tumor; [4]
  M.S.T.: 20.0 days
  T/C (1): 111
Ehrlich's Ascites Tumor; [5]
  M.S.T.: 20.0 days
  T/C (1): 111
Mouse Sarcoma 180; [6]
  M.S.T.: 17.0 days
  T/C (1): 100
Mouse Sarcoma 180; [7]
  M.S.T.: 17.0 days
  T/C (1): 100

## Cn1c(=O)c2c(ncn2C)n(C)c1=O [Caffeine, 1, 3, 7 trimethyl xanthene]
[1]; [8]
  M.S.T.: 8.0 days
  T/C (1): 89
[1]; [9]
  M.S.T.: 8.0 days
  T/C (1): 89
[1]; [10]
  M.S.T.: 7.0 days
  T/C (1): 93
[1]; [11]
  M.S.T.: 8.0 days
  T/C (1): 107
[1]; [12]
  M.S.T.: 10.0 days
  T/C (1): 95
[1]; [13]
  M.S.T.: 10.0 days
  T/C (1): 95
Ehrlich's Ascites Tumor; [14]
  M.S.T.: 21.0 days
  T/C (1): 93
Ehrlich's Ascites Tumor; [15]
  M.S.T.: 21.0 days
  T/C (1): 93
Ehrlich's Ascites Tumor; [16]
  M.S.T.: 22.0 days
  T/C (1): 119
Ehrlich's Ascites Tumor; [17]
  M.S.T.: 21.0 days
  T/C (1): 113
Ehrlich's Ascites Tumor; [18]
  M.S.T.: 20.0 days
  T/C (1): 108
Mouse Sarcoma 180; [19]
  M.S.T.: 17.0 days
  T/C (1): 106
